# PMC9312958, “A Novel and Selective Dopamine Transporter Inhibitor, (S)-MK-26, Promotes Hippocampal Synaptic Plasticity and Restores Effort-Related Motivational Dysfunctions” (Biomolecules, 2022)
# What was measured:
# hDAT = target: T1, hDAT (Homo sapiens, UniProt Q01959); test: Uptake inhibition assay in HEK293 cells expressing hDAT; assay type: cell-based
# T1 construct: expressed in transfected cells
# Procedure: (§1) Human embryonic kidney 293 cells (HEK293 cells) were cultivated in Dulbecco’s Modified Eagle Medium (DMEM), containing 10% heat-inactivated fetal calf serum (FCS; 100 mL/L), streptomycin (100 μg/100 mL) and penicillin ([…]). Geneticin (50 μg/mL) was added to select cells stably expressing the human isoforms of dopamine, norepinephrine and serotonin transporter (hDAT, hNET, and hSERT, respectively) as described earlier. Cell lines were maintained in culture in humidified atmosphere (37 °C, 5% CO2), and passaged when reached 80–90% confluency. Cells expressing the desired transporter were seeded the day before the experiment (40,000 cells per well) or two days before the experiments (20,000 cells per well) onto poly-D-lysine (PDL)-coated 96-well plates.
# (§2) Uptake inhibition experiments were carried out as reported previously. Ninety-six-well plates containing hDAT-, hNET- or hSERT-expressing cells were washed with Krebs-HEPES buffer (KHB; 25 mM HEPES, 120 mM NaCl, 5 mM KCl, 1.2 mM CaCl2, and 1.2 mM MgSO4 and 5 mM D-glucose, pH = 7.3). Cells were then preincubated with increasing concentrations of the compound diluted in KHB for 6 min. Following the pre-incubation of the cells with the compound, the tritiated substrate (hDAT: 0.15 μM [^3H]DA; hNET: 0.05 μM [^3H]MPP^+; hSERT: 0.1 μM [^3H]5-HT) was added to the wells. The uptake was terminated by removal of tritiated substrate and by washing the cells with ice-cold KHB after 1 min (for hDAT and hSERT) or 3 min (for hNET). Thereafter, 200 μL of Ultima Gold^TM XR scintillation cocktail (PerkinElmer, MA, USA) was added, the plates were shaken and the radioactivity accumulated into the cells determined in a Wal-lac 1450 MicroBeta TriLux Liquid Scintillation Counter & Lumi (GMI, Ramsey, MN, USA). Non- specific tritiated substrate uptake was measured in the presence of 100 μM cocaine (for hDAT and hNET) or 10 μM paroxetine (for hSERT), and subtracted from the data. Uptake in the presence of test drugs was normalized to the uptake in the presence of the vehicle.
# hNET = target: T2, hNET (Homo sapiens, UniProt P23975); test: Uptake inhibition assay in HEK293 cells expressing hNET; assay type: cell-based
# T2 construct: expressed in transfected cells
# Procedure: as §1, §2
# hSERT = target: T3, hSERT (Homo sapiens, UniProt P31645); test: Uptake inhibition assay in HEK293 cells expressing hSERT; assay type: cell-based
# T3 construct: expressed in transfected cells
# Procedure: as §1
# Uptake inhibition experiments were carried out as reported previously. […] Thereafter, 200 μL of Ultima Gold^TM XR scintillation cocktail (PerkinElmer, MA, USA) was added, the plates were shaken and the radioactivity accumulated into the cells determined in a Wal-lac 1450 MicroBeta TriLux Liquid Scintillation Counter & Lumi (GMI, Ramsey, MN, USA). Non- specific tritiated substrate uptake was measured in the presence of 100 μM cocaine (for hDAT and hNET) or 10 μM paroxetine (for hSERT), and subtracted from the data. […]
# DAT = test system: DAT; set-up: method as in PMID 16885432; details: read-out: IC50, DAT-inhibiting power; cited from earlier work
# [1] = test system: adult male Sprague Dawley rats; test: FR5/chow feeding choice task; assay type: in vivo, rat; details: 1.0 mg/kg TBZ plus vehicle vs vehicle plus vehicle
# Procedure: Pharmacological agents: (S)-MK-26 was obtained from the Lubec Laboratory (University of Vienna, Austria) and dissolved in dimethyl sulfoxide (DMSO) (10%), Tween 80 (15%), and 0.9% saline (75%). The DMSO/Tween 80/saline mixture was administered as the vehicle control. The dose range was selected as 3.75–45.0 mg/kg based on its DAT affinity and pilot studies. It was administered 30 min before testing. TBZ (9,10-dimethoxy3-(2-methylpropyl)-1,3,4,6,7, 11b hexahydrobenzo[a]quinolizin2-one) was obtained from Tocris Bioscience (Ellisville, MO) and was dissolved in DMSO (20%) and 0.9% saline (80%) and was titrated with 1.0 N HCl until the drug was dissolved at a pH of 4.0–4.5. The DMSO/saline solution with equal amounts of HCl was administered as the vehicle control. The selected dose was 1.0mg/kg based on the previous research from our laboratory. It was administered 120 min prior to testing.
# FR5/chow feeding choice task: A total of 8 adult male Sprague Dawley rats (Envigo Sprague Dawley, Indianapolis, IN, USA; weights 275–299 g upon arrival) were pair-housed in a colony maintained at 23 °C, with a 12 h light/dark cycle (lights on 07:00). Rats were food deprived to 85% of their free-feeding body weight with modest growth throughout the experiment and water was available ad libitum in their home cages. All the animal protocols were approved by the University of Connecticut Institutional Animal Care and Use Committee, and the experiments were completed according to National Institutes of Health guidelines.
# Behavioral sessions were conducted in operant chambers (28 × 23 × 23 cm^3; Med Associates, Fairfax, VT, USA) with 30 min sessions 5 days/week. Rats were initially trained to lever press on magazine training for 3 days, followed by an FR1 schedule for 3 days (high-carbohydrate 45-mg pellets, Bio-Serv, Frenchtown, NJ, USA), and then moved to the FR5 schedule. After 5 weeks of training on the FR5 schedule, lab chow was introduced as the concurrently available choice food (Laboratory Diet, 5P00 Prolab RMH 3000, Purina Mills, St. Louis, MO, USA; typically 15–20 g). At the end of each session, rats were immediately removed from the chambers. The number of lever pressing was recorded and the amount of consumed chow was calculated by weighing the remaining food, including spillage. Rats were trained on the FR5/chow feeding choice task for 5 weeks, after which drug testing began.
# To test the effects of (S)-MK-26 on FR5/Chow feeding choice task, trained rats were administered either with TBZ (1.0 mg/kg) or vehicle 120 min before testing, and (S)-MK-26 also with doses of 15.0, 30.0, 45.0 mg/kg or vehicle 30 min before testing, via intraperitoneal (IP) injections on drug testing days. A repeated-measures design was utilized where each rat received each drug treatment in a randomly varied order, once per week. The following five treatment combinations were given: TBZ vehicle + (S)-MK-26 vehicle; 1.0 mg/kg TBZ + (S)-MK-26 vehicle; 1.0 mg/kg TBZ + 15.0 mg/kg (S)-MK-26; 1.0 mg/kg TBZ + 30.0 mg/kg (S)-MK-26; 1.0 mg/kg TBZ + 45.0 mg/kg (S)-MK-26. Next, to see if the effects of lower doses, the following four treatment combinations were given in a repeated measure design: TBZ vehicle + (S)-MK-26 vehicle; 1.0 mg/kg TBZ + (S)-MK-26 vehicle; 1.0 mg/kg TBZ + 3.75 mg/kg (S)-MK-26; 1.0 mg/kg TBZ + 7.5 mg/kg (S)-MK-26.
# T2 sequence (P23975 whole entry): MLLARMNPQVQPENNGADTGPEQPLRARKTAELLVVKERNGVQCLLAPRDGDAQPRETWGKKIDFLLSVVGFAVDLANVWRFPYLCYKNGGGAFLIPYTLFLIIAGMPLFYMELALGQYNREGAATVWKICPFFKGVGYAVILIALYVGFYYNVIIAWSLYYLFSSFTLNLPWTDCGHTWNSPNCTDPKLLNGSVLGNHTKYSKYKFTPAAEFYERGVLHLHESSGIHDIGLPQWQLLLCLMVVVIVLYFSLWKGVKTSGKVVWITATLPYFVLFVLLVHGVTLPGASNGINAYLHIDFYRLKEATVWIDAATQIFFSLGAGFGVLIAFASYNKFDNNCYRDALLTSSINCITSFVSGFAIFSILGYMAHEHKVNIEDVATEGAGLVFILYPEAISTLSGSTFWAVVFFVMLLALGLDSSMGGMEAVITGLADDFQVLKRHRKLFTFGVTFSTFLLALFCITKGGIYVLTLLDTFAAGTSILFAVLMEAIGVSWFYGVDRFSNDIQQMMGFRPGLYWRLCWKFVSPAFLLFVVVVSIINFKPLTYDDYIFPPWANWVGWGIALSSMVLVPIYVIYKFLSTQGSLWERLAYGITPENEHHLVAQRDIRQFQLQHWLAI
# T3 sequence (P31645 whole entry): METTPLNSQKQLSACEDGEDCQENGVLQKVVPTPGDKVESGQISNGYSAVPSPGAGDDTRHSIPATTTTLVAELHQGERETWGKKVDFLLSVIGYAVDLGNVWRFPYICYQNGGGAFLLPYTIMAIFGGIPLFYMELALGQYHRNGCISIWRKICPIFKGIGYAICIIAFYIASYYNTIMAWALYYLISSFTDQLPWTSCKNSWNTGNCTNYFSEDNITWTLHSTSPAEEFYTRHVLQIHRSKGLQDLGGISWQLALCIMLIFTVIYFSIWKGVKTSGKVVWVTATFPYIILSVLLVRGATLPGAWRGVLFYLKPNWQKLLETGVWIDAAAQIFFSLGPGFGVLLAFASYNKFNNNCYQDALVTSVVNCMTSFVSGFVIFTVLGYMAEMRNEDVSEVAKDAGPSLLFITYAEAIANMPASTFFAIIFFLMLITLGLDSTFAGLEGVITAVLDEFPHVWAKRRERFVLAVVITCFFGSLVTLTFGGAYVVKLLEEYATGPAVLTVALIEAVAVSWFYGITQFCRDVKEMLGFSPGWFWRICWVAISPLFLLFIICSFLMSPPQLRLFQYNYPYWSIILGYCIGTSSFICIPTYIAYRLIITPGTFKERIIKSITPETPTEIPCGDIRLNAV
# T1 sequence (Q01959 whole entry): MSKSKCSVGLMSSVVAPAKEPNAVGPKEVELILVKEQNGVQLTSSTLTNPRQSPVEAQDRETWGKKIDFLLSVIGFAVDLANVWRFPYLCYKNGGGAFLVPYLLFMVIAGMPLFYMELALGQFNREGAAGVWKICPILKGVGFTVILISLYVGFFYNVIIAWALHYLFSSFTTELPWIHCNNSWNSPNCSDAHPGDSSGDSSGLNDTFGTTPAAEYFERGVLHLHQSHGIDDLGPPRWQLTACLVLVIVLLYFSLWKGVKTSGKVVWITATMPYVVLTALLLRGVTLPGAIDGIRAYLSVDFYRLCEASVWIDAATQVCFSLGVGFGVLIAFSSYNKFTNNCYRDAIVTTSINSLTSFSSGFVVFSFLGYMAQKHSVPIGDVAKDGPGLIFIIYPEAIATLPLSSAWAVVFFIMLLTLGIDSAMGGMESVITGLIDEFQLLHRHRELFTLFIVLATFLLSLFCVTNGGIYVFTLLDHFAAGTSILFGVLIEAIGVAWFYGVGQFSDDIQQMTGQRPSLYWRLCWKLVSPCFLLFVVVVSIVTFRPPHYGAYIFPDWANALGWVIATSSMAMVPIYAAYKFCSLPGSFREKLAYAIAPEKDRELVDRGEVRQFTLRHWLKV
smiles,measurement,setting,value
"[O-][S@+](Cc1cncs1)C(c1cccc(Cl)c1)c1cccc(Cl)c1 [(R)-MK-26, (R)-5-(((bis(3-chlorophenyl)methyl)sulphinyl)methyl)thiazole]",IC50,hDAT,36.3 µM
same,IC50,hNET,2160 µM
same,IC50,hSERT,> 1000 µM
"COc1cc2c(cc1OC)C1CC(=O)C(CC(C)C)CN1CC2 (stereo not shown) [TBZ, 9,10-dimethoxy3-(2-methylpropyl)-1,3,4,6,7, 11b hexahydrobenzo[a]quinolizin2-one, reference compound]",effect on chow intake,[1],increasing chow intake
same,effect on lever pressing,[1],decreasing lever pressing
"NC(=O)C[S@@+]([O-])C(c1ccccc1)c1ccccc1 [(R)-Modafinil, reference compound]",IC50,hNET,127 µM
